{"source": "patent US20180042232A1", "about": "“Methods and Compositions for Reducing Anguina Nematode Infestation and Improving Grass Quality” (Bayer CropScience LP, priority 2015, published 2018)", "format_in_all_cases": "in vivo", "key": {"Poa annua turfgrass [1]": {"tested_on": "Poa annua turfgrass", "assay": "Crop Circle ACS-430 canopy sensor vegetation index (RVI, NDVI) of a treated Poa annua green, Pebble Beach", "conditions": "for NDVI (Normalized Difference Vegetation Index) / RVI (Ratio Vegetation Index): Pebble Beach, 96 DAA; for NDVI (Normalized Difference Vegetation Index): untreated 0.7064; for RVI (Ratio Vegetation Index): untreated 5.830", "excerpt": "FIG. 3 sets forth comparative RVI measurements of Poa annua turfgrass treated with fluopyram at defined concentrations and doses. In the legend provided, each letter (e.g., “A,” “B,” “C,” etc.) represents a two week interval (e.g., AC=4-week interval).\nFIG. 4 sets forth comparative NDVI measurements of Poa annua turfgrass treated with fluopyram at defined concentrations and doses. In the legend provided, each letter (e.g., “A,” “B,” “C,” etc.) represents a two week interval (e.g., AC=4-week interval).\n(§1) A Poa annua green is treated by spraying the active ingredient on foliage and waiting at least three hours before irrigating into the thatch/mat layer for upward movement into the stem region (just above the crown) where the nematode resides. One or more applications can be made in 2-8 weeks. The interval may be longer if control has not declined, or treatments are to be applied in different seasons (e.g., spring and fall).\nA Crop Circle ACS-430 active crop canopy sensor (Holland Scientific, Inc.) provided classic vegetation index data (RVI=Ratio Vegetation Indices; NDVI=Normalized difference vegetative index) from the turf canopy. Unlike passive radiometric light sensors, the Crop Circle ACS-430 is not limited by ambient lighting conditions and measurements were made by day due to its unique light source technology. Information produced by the sensor can be utilized to quantify the impact of nutrients, water, disease or other growing conditions on the turf plant. The ratio vegetation index (RVI) is formed by dividing the near infra-red irradiance by the red irradiance. Study plots were scanned at intervals to collect this quantitative data. The normalized difference vegetative index (NDVI) is calculated as follows: […]\nwhere VIS and NIR stand for the spectral reflectance measurements acquired in the visible (red) and near-infrared regions, respectively.\n(§2) In FIG. 3, RVI of a Poa annua green is evaluated 96 DAA. The first column represents RVI at 96 DAA in an untreated sample of turfgrass. The second column represents RVI at 96 DAA in turfgrass treated with 250 g ai/ha fluopyram at 4-week intervals. The third column represents RVI at 96 DAA in turfgrass treated with 500 g ai/ha fluopyram at 4-week intervals. The fourth column represents RVI at 96 DAA in turfgrass treated with 286 g ai/ha azadirachtin applied bi-weekly to the soil. FIG. 3 corresponds to Table 3, below.\nas §2, with “4, NDVI” for “3, RVI”, “NDVI” for “RVI”, “4” for “3”, “4,” for “3,”"}, "[2]": {"tested_on": "Anguina pacificae nematode galls", "assay": "Nematode gall count of a treated Poa annua green, Pebble Beach", "excerpt": "FIG. 5 sets forth comparative numerical representations of Anguina pacificae nematodes galls found in 100 cc untreated soil, 100 cc soil treated with azadirachtin, and 100 cc soil treated with fluopyram at defined concentrations and doses. In the legend provided, each letter (e.g., “A,” “B,” “C,” etc.) represents a two week interval (e.g., AC=4-week interval).\nExample 2 describes effects of various treatments on nematode population on a Poa annua green at Pebble Beach.\n(§3) Trials are kept free of any pests that can interfere or impact and nematode evaluations and yields.\nas §1\nIn FIG. 5, a Poa annua green is evaluated and counts of nematode galls per 100 cc soil are taken 87 and 139 days after anthesis (DAA). The first and fifth columns represent nematode gall count at 87 and 139 DAA, respectively, in an untreated sample of turfgrass. The second and sixth columns represent nematode gall count at 87 and 139 DAA, respectively, in turfgrass treated with 250 g ai/ha fluopyram at 4-week intervals. The third and seventh columns represent nematode gall count at 87 and 139 DAA, respectively, in turfgrass treated with 500 g ai/ha fluopyram at 4-week intervals. The fourth and eighth columns represent nematode gall count at 87 and 139 DAA, respectively, in turfgrass treated with 286 g ai/ha azadirachtin applied bi-weekly to the soil. FIG. 5 corresponds to Table 5 (87 DAA) and Table 6 (139 DAA), below."}, "[3]": {"tested_on": "Anguina pacificae nematodes", "assay": "Nematode count in soil of a treated Poa annua green, Pebble Beach", "conditions": "87 DAA, untreated 212.5", "excerpt": "FIG. 1 sets forth comparative numerical representations of Anguina pacificae nematodes found in 100 cc untreated soil, 100 cc soil treated with azadirachtin, and 100 cc soil treated with fluopyram at defined concentrations and doses. In the legend provided, each letter (e.g., “A,” “B,” “C,” etc.) represents a two week interval (e.g., AC=4-week interval).\nExample 1 describes effects of various treatments on nematode population on a Poa annua green at Pebble Beach.\nas §3, §1\nIn FIG. 1, a Poa annua green is evaluated and counts of nematodes per 100 cc soil are taken 87 days after anthesis (DAA). The first column represents nematode count at 87 DAA in an untreated sample of turfgrass. The second column represents nematode count at 87 DAA in turfgrass treated with 250 g ai/ha fluopyram at 4-week intervals. The third column represents nematode count at 87 DAA in turfgrass treated with 500 g ai/ha fluopyram at 4-week intervals. The fourth column represents nematode count at 87 DAA in turfgrass treated with 286 g ai/ha azadirachtin applied bi-weekly to the soil. FIG. 1 corresponds to Table 1, below."}, "Poa annua turfgrass [4]": {"tested_on": "Poa annua turfgrass", "assay": "Turf quality evaluation of a treated Poa annua green, Pebble Beach", "conditions": "96 DAA, 1-9 scale (9 = best, 6 = acceptable), untreated 4.8", "procedure": "FIG. 2 sets forth comparative turf quality evaluations of Poa annua turfgrass treated with fluopyram at defined concentrations and doses. In the legend provided, each letter (e.g., “A,” “B,” “C,” etc.) represents a two week interval (e.g., AC=4-week interval).\nas §1\nas §2, with “2, turf quality” for “3, RVI”, “turf quality” for “RVI”, “2” for “3”, “2,” for “3,”"}, "[5]": {"tested_on": "Anguina pacificae nematode galls", "assay": "Nematode gall count of a treated Poa annua green, The Links at Spanish Bay", "conditions": "171 DAA, untreated 22.8", "excerpt": "FIG. 6 sets forth comparative numerical representations of Anguina pacificae nematode galls found in 100 cc untreated soil, 100 cc soil treated with azadirachtin+cimectacarb, and 100 cc soil treated with fluopyram at defined concentrations and doses. In the legend provided, each letter (e.g., “A,” “B,” “C,” etc.) represents a two week interval (e.g., AC=4-week interval).\nExample 3 describes effects of various treatments on nematode population on a Poa annua green at The Links at Spanish Bay.\nas §3, §1\nIn FIG. 6, a Poa annua green is evaluated and counts of nematode galls per 100 cc soil are taken 171 days after anthesis (DAA). The first column represents nematode count at 171 DAA in an untreated sample of turfgrass. The second column represents nematode count at 171 DAA in turfgrass treated with 250 g ai/ha fluopyram at 4-week intervals. […]"}, "Poa annua turfgrass [6]": {"tested_on": "Poa annua turfgrass", "assay": "Turf quality evaluation of a treated Poa annua green, The Links at Spanish Bay", "conditions": "179 DAA, 0-10 scale (10 = best), untreated 5.5", "procedure": "FIG. 7 sets forth comparative turf quality evaluations of Poa annua turfgrass treated with fluopyram at defined concentrations and doses. In the legend provided, each letter (e.g., “A,” “B,” “C,” etc.) represents a two week interval (e.g., AC=4-week interval).\nas §1\nas §2, with “7, turf quality” for “3, RVI”, “179” for “96”, “turf quality” for “RVI”, “7” for “3”, “8,” for “3,”"}, "[7]": {"conditions": "286 g ai/ha applied bi-weekly to the soil"}, "[8]": {"conditions": "250 g ai/ha at 4-week intervals"}, "[9]": {"conditions": "500 g ai/ha at 4-week intervals"}}}
{"smiles": "C/C=C(\\C)C(=O)O[C@H]1C[C@@H](OC(C)=O)[C@@]2(C(=O)OC)CO[C@H]3[C@@H](O)[C@@](C)([C@]45O[C@@]4(C)[C@H]4C[C@@H]5O[C@@H]5OC=C[C@@]54O)[C@H]4[C@]1(CO[C@]4(O)C(=O)OC)[C@@H]32", "note": "[azadirachtin]", "values": [{"measurement": "NDVI (Normalized Difference Vegetation Index)", "setting": "Poa annua turfgrass [1]; [7]", "value": 0.6865}, {"measurement": "RVI (Ratio Vegetation Index)", "setting": "Poa annua turfgrass [1]; [7]", "value": 5.425}, {"measurement": "Nematode galls/100 cc soil", "setting": "[2]; 286 g ai/ha applied bi-weekly to the soil, 87 DAA, untreated 31", "value": 34, "unit": "galls/100 cc soil"}, {"measurement": "Nematode galls/100 cc soil", "setting": "[2]; 286 g ai/ha applied bi-weekly to the soil, 139 DAA, untreated 19", "value": 16, "unit": "galls/100 cc soil"}, {"measurement": "Nematodes/100 cc soil", "setting": "[3]; [7]", "value": 270, "unit": "nematodes/100 cc soil"}, {"measurement": "Turf Quality", "setting": "Poa annua turfgrass [4]; [7]", "value": 4.8}]}
{"smiles": "O=C(NCCc1ncc(C(F)(F)F)cc1Cl)c1ccccc1C(F)(F)F", "note": "[fluopyram, N-{2-[3-chloro-5-(trifluoromethyl)-2-pyridinyl]ethyl}-2-(trifluoromethyl) benzamide]", "values": [{"measurement": "NDVI (Normalized Difference Vegetation Index)", "setting": "Poa annua turfgrass [1]; [8]", "value": 0.7634}, {"measurement": "RVI (Ratio Vegetation Index)", "setting": "Poa annua turfgrass [1]; [8]", "value": 7.475}, {"measurement": "NDVI (Normalized Difference Vegetation Index)", "setting": "Poa annua turfgrass [1]; [9]", "value": 0.7908}, {"measurement": "RVI (Ratio Vegetation Index)", "setting": "Poa annua turfgrass [1]; [9]", "value": 8.598}, {"measurement": "Vegetative index (RVI and NDVI) compared to the untreated control", "setting": "Poa annua turfgrass [1]; averaged over the course of the study, Poa annua turfgrass", "value": "positively enhanced vegetative index"}, {"measurement": "Nematode galls/100 cc soil", "setting": "[2]; 250 g ai/ha at 4-week intervals, 87 DAA, untreated 31", "value": 6, "unit": "galls/100 cc soil"}, {"measurement": "Nematode galls/100 cc soil", "setting": "[2]; 250 g ai/ha at 4-week intervals, 139 DAA, untreated 19", "value": 2, "unit": "galls/100 cc soil"}, {"measurement": "Nematode galls/100 cc soil", "setting": "[2]; 500 g ai/ha at 4-week intervals, 87 DAA, untreated 31", "value": 3, "unit": "galls/100 cc soil"}, {"measurement": "Nematode galls/100 cc soil", "setting": "[2]; 500 g ai/ha at 4-week intervals, 139 DAA, untreated 19", "value": 0.5, "unit": "galls/100 cc soil"}, {"measurement": "Nematode galls/100 cc soil", "setting": "[5]; [8]", "value": 4.3, "unit": "galls/100 cc soil"}, {"measurement": "Nematode galls/100 cc soil", "setting": "[5]; [9]", "value": 1.8, "unit": "galls/100 cc soil"}, {"measurement": "Nematodes/100 cc soil", "setting": "[3]; [8]", "value": 17.5, "unit": "nematodes/100 cc soil"}, {"measurement": "Nematodes/100 cc soil", "setting": "[3]; [9]", "value": 17.5, "unit": "nematodes/100 cc soil"}, {"measurement": "Turf Quality", "setting": "Poa annua turfgrass [4]; [8]", "value": 7.4}, {"measurement": "Turf Quality", "setting": "Poa annua turfgrass [4]; [9]", "value": 8.1}, {"measurement": "Turf Quality", "setting": "Poa annua turfgrass [6]; [8]", "value": 6.0}, {"measurement": "Turf Quality", "setting": "Poa annua turfgrass [6]; [9]", "value": 8.5}]}
